Test results as given in ChEMBL document CHEMBL6120940, “Discovery of N-Aryl-N'-[4-(aryloxy)cyclohexyl]squaramide-Based Inhibitors of LXR/SREBP-1c Signaling Pathway Ameliorating Steatotic Liver Disease: Navigating the Role of SIRT6 Activation” (J Med Chem, 2024).

Key:
CYP2D6 = CYP2D6 (Homo sapiens, UniProt P10635); assay: Inhibition of CYP2D6 in human liver microsomes at 10 uM using dextromethorphan as substrate preincubated for 5 mins followed by NADPH generating system addition and measured after 15 mins relative to control; assay type: ADME, Microsome; conditions: probe dextromethorphan, time 20 min
[1] = Metabolic stability in rat liver microsomes at 1 uM measured after 30 mins in presence of NADPH regeneration system by LC-MS/MS analysis; assay type: ADME, Microsome; conditions: read-out: Stability
[2] = Stability in mouse plasma measured after 120 mins by LC-MS/MS analysis; assay type: ADME, cell-free; conditions: read-out: Stability
CYP1A2 = target: T1, CYP1A2 (Homo sapiens, UniProt P05177); assay: Inhibition of CYP1A2 in human liver microsomes at 10 uM using phenacetin as substrate preincubated for 5 mins followed by NADPH generating system addition and measured after 15 mins relative to control; assay type: ADME, Microsome; conditions: probe phenacetin, time 20 min
T1 sequence (P05177 whole entry): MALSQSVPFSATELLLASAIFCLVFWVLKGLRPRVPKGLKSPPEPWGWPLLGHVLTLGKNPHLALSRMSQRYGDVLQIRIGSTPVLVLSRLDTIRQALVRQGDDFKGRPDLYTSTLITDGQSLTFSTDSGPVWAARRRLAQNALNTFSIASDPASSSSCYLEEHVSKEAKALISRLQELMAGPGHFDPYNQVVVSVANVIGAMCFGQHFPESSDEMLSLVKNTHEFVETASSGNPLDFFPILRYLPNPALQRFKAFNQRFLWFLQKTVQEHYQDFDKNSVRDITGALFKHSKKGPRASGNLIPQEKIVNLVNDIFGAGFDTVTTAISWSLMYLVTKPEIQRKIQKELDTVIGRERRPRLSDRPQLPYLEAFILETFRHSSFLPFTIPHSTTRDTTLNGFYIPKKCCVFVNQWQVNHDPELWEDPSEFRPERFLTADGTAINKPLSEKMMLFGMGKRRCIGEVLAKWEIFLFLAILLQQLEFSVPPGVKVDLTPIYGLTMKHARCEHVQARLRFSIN

[3] = target: Voltage-gated inwardly rectifying potassium channel KCNH2 (Homo sapiens, UniProt Q12809); assay: Inhibition of human ERG expressing HEK cells by whole-cell patch clamp assay; assay type: toxicity, cell-based
[4] = Metabolic stability in mouse liver microsomes at 1 uM measured after 30 mins in presence of NADPH regeneration system by LC-MS/MS analysis; assay type: ADME, Microsome; conditions: read-out: Stability
CYP3A4 = CYP3A4 (Homo sapiens, UniProt P08684); assay: Inhibition of CYP3A4 in human liver microsomes at 10 uM using midazolam as substrate preincubated for 5 mins followed by NADPH generating system addition and measured after 15 mins relative to control; assay type: ADME, Microsome; conditions: probe midazolam, time 20 min
[5] = Downregulation of SREBP-1c mRNA expression in human HepG2 cells at 10 uM pretreated with compound for 30 mins followed by T0901317 addition and measured after 12 hrs by RT-qPCR analysis relative to control; assay type: functional; conditions: time 12.5 hrs
CYP2C9 = CYP2C9 (Homo sapiens, UniProt P11712); assay: Inhibition of CYP2C9 in human liver microsomes at 10 uM using diclofenac as substrate preincubated for 5 mins followed by NADPH generating system addition and measured after 15 mins relative to control; assay type: ADME, Microsome; conditions: probe diclofenac, time 20 min
[6] = Metabolic stability in human liver microsomes at 1 uM measured after 30 mins in presence of NADPH regeneration system by LC-MS/MS analysis; assay type: ADME, Microsome; conditions: read-out: Stability
CYP2C19 = CYP2C19 (Homo sapiens, UniProt P33261); assay: Inhibition of CYP2C19 in human liver microsomes at 10 uM using S-mephenytoin as substrate preincubated for 5 mins followed by NADPH generating system addition and measured after 15 mins relative to control; assay type: ADME, Microsome; conditions: probe S-mephenytoin, time 20 min
[7] = target: T2, Sterol regulatory element-binding protein 1 (Homo sapiens) (UniProt P36956); assay: Inhibition of SREBP-1c transcriptional activity in human HepG2 cells expressing LXRalpha/RXRalpha assessed as reduction in SRE-luciferase level at 10 uM pretreated with compound for 30 mins followed by T0901317 addition and measured after 12 hrs by Dual-Glo luciferase assay relative to control; assay type: cell-based; conditions: time 12.5 hrs
T2 sequence (whole entry): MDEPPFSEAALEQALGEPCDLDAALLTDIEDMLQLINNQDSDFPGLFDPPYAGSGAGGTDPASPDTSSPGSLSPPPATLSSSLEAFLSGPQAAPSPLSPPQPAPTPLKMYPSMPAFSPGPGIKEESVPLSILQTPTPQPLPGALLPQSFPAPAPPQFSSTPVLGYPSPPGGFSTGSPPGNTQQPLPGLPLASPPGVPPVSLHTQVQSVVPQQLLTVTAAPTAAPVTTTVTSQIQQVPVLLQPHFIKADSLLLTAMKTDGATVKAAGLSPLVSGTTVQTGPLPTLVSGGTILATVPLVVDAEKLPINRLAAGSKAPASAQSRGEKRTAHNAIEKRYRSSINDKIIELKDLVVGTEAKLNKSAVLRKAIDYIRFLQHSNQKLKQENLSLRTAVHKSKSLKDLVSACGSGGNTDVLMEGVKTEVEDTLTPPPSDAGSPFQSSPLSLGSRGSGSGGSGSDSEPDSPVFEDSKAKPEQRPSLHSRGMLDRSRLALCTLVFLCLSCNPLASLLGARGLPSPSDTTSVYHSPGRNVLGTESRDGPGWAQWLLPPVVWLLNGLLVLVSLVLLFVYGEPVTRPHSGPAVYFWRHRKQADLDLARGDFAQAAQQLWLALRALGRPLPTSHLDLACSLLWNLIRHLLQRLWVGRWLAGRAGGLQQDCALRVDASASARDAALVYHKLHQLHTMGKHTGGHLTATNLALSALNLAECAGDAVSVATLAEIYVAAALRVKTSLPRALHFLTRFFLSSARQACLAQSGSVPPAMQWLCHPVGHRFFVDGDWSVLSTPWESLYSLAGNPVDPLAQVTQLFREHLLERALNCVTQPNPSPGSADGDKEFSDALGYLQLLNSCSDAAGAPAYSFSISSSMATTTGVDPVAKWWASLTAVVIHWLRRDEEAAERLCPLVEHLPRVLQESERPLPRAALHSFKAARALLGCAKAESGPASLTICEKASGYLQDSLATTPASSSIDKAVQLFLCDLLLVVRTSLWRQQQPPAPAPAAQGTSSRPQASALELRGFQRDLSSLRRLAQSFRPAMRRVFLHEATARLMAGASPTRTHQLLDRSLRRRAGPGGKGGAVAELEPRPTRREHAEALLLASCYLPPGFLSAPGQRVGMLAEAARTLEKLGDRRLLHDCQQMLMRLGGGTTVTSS

[8] = Stability in rat plasma measured after 120 mins by LC-MS/MS analysis; assay type: ADME, cell-free; conditions: read-out: Stability
[9] = Stability in human plasma measured after 120 mins by LC-MS/MS analysis; assay type: ADME, cell-free; conditions: read-out: Stability

Chain of Voltage-gated inwardly rectifying potassium channel KCNH2 (Q12809 whole entry): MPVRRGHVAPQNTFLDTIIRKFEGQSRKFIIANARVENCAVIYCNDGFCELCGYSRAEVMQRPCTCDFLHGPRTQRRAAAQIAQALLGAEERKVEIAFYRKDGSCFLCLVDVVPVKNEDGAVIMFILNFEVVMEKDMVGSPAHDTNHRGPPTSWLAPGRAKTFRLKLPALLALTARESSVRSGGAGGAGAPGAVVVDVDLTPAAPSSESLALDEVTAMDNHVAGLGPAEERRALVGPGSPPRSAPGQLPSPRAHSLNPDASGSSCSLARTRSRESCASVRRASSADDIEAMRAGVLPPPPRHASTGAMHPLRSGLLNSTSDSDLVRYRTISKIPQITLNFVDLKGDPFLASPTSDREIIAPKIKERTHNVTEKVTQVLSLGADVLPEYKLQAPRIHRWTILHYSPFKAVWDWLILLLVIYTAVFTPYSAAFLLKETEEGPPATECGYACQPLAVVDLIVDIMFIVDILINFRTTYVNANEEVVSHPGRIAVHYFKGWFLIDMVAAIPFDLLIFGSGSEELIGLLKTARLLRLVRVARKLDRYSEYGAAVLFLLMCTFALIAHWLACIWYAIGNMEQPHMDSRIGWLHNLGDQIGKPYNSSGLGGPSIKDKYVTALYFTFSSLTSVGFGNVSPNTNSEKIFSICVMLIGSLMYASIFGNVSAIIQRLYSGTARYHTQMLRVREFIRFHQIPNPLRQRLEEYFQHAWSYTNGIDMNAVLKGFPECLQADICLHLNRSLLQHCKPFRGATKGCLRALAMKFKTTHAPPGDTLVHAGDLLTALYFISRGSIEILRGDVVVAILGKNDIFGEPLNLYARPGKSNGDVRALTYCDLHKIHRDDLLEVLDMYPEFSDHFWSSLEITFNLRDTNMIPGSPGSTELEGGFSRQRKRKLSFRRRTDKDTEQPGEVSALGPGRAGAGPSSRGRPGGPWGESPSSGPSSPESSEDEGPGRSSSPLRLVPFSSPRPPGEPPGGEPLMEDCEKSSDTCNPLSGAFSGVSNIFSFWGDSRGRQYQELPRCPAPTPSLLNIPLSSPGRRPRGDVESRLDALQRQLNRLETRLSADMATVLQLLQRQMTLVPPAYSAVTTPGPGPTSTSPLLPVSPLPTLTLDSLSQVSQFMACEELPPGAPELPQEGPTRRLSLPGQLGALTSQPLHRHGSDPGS
Chain of CYP2C19 (P33261 whole entry): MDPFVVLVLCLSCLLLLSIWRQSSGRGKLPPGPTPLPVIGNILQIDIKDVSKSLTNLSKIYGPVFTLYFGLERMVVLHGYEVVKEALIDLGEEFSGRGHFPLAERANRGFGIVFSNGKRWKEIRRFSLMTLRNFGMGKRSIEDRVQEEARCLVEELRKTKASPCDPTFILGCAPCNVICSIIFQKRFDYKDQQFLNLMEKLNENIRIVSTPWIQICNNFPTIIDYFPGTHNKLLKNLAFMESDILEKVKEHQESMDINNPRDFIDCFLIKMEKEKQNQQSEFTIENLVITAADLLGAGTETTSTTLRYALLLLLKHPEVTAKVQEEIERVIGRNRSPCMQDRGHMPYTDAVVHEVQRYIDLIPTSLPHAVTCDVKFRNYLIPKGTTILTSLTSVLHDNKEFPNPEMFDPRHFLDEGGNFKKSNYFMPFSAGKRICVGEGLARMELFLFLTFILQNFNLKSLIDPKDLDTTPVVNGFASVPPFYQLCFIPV
Chain of CYP3A4 (P08684 whole entry): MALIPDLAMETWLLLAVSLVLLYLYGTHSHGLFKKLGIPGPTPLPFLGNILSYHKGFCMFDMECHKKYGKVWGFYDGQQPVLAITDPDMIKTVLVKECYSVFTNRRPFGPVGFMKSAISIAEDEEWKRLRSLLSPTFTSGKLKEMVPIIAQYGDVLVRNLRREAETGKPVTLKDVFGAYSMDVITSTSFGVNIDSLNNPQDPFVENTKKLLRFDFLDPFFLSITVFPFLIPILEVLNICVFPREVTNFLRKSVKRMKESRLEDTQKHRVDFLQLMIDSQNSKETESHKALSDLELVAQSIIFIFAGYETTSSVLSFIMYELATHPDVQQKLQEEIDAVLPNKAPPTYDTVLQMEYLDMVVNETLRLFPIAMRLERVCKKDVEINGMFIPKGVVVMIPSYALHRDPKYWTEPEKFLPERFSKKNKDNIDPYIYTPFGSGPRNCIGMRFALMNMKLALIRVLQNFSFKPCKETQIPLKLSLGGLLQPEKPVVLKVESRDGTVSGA
Chain of CYP2C9 (P11712 whole entry): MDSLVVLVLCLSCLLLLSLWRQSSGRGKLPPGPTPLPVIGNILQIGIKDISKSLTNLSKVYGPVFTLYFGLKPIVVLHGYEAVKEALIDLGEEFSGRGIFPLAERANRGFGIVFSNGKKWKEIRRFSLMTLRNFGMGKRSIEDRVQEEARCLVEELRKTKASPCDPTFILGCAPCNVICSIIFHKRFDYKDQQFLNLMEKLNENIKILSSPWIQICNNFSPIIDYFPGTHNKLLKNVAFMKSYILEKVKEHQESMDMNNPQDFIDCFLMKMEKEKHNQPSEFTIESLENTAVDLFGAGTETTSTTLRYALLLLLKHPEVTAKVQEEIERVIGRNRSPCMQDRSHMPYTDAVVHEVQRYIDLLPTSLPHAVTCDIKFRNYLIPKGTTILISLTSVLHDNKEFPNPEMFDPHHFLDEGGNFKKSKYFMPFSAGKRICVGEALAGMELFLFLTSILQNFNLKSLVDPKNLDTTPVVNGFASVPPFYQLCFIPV
Chain of CYP2D6 (P10635 whole entry): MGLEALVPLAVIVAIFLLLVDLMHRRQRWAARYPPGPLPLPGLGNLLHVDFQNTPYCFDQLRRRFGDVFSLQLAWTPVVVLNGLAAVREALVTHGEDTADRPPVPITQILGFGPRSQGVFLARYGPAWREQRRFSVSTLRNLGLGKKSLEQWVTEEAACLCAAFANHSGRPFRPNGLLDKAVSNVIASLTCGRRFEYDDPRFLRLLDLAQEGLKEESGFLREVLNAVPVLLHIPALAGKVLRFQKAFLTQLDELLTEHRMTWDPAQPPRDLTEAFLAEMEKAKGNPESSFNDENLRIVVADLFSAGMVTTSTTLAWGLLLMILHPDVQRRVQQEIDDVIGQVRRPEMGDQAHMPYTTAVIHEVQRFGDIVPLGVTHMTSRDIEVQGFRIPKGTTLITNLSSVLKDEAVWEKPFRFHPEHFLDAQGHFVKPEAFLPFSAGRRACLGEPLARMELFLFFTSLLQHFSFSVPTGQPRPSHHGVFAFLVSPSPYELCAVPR

COc1ccccc1Nc1c(N[C@H]2CC[C@H](Oc3ccc(C#N)cc3)CC2)c(=O)c1=O
inhibition at 0.25 h, 10 µM (CYP2D6): 86.2% | remaining at 0.5 h, 1 µM [1]: 26.5% | remaining at 2 h [2]: > 100% | inhibition at 0.25 h, 10 µM (CYP1A2): > 100% | IC50 [3]: 493 nM | remaining at 0.5 h, 1 µM [4]: 31% | inhibition at 0.25 h, 10 µM (CYP3A4): 84% | Activity [5]: 7.4% | inhibition at 0.25 h, 10 µM (CYP2C9): 56.9% | remaining at 0.5 h, 1 µM [6]: 15.5% | inhibition at 0.25 h, 10 µM (CYP2C19): 38.9% | inhibition [7]: 32.6% | remaining at 2 h [8]: 93.1% | remaining at 2 h [9]: 96.3%
